Experimental data reported in patent US8722903B2, “Indazole derivatives for the treatment of HSP9O-induced diseases” (Merck Patent GmbH, priority 2006, dated 2014).

Target: T1, Recombinant human HSP90α (Homo sapiens, UniProt P07900)
T1 construct: host or cells: E. coli
Assay: Radioligand filter binding test: competitive inhibition of [3H]17AAG binding to HSP90
Settings: [3H]17AAG 0.08 μM, HSP90 1.5 μg/assay, 22° C., 30 min
Procedure: In the specific case, a radioligand filter binding test is used. The radioligand used here is tritium-labelled 17-allylaminogeldanamycin, [3H]17AAG, This filter binding test allows a targeted search for inhibitors which interfere with the ATP binding site.
Recombinant human HSP90α (E. coli expressed, 95% purity);
HEPES filter buffer (50 mM HEPES, pH 7.0, 5 mM MgCl2, BSA 0.01%) Multiscreen FB (1 μm) filter plate (Millipore, MAFBNOB 50).
The 96-well microtitre filter plates are firstly irrigated and coated with 0.1% of polyethylenimine.
The test is carried out under the following conditions:
Reaction temperature 22° C.
Reaction time: 30 min., shaking at 800 rpm
50 mM HEPES HCl, pH 7.0, 5 mM MgCl2, 0.01% (w/v) of BSA
At the end of the reaction, the supernatant in the filter plate is removed by suction with the aid of a vacuum manifold (Multiscreen Separation System, Millipore), and the filter is washed twice.
The filter plates are then measured in a beta counter (Microbeta, Wallac) with scintillator (Microscint 20, Packard).
“% of control” is determined from the “counts per minutes” values, and the IC-50 value of a compound is calculated therefrom.

IC50	SMILES
10 to 1000 nM	CCCc1n[nH]c2cc(O)c(C(=O)N(C)c3ccc(CNS(C)(=O)=O)cc3)cc12 [Compound A177, 5-[N-(4-Methylsulfonylaminomethylphenyl)-N-methylaminocarbonyl]-3-propyl-6-hydroxy-1H-indazole]
10 to 1000 nM	CCCc1n[nH]c2cc(O)c(C(=O)N(C)Cc3ccccc3)cc12 [Compound A178, 5-(N-Benzyl-N-methylaminocarbonyl)-3-propyl-6-hydroxy-1H-indazole]
10 to 1000 nM	CN(Cc1ccccc1)C(=O)c1cc2c(CCc3ccccc3)n[nH]c2cc1O [Compound A181, 5-(N-Benzyl-N-methylaminocarbonyl)-3-phenethyl-6-hydroxy-1H-indazole]
1000 to 10000 nM	CCCN(C)C(=O)c1cc2c(CCc3ccccc3)n[nH]c2cc1O [Compound A182, 5-(N-Propyl-N-methylaminocarbonyl)-3-phenethyl-6-hydroxy-1H-indazole]
10 to 1000 nM	COc1cc(N(C)C(=O)c2cc3c(Cc4cccc(C)c4)n[nH]c3cc2O)ccc1N1CCN(C)CC1 [Compound A190, 5-{N-[3-Methoxy-4-(4-methylpiperazin-1-yl)phenyl]-N-methylaminocarbonyl}-3-(3-methylbenzyl)-6-hydroxy-1H-indazole]
10 to 1000 nM	Cc1cccc(Cc2n[nH]c3cc(O)c(C(=O)N(C)c4ccc(CN5CCOCC5)cc4)cc23)c1 [Compound A191, 5-[N-(4-Morpholin-4-ylmethylphenyl)-N-methylaminocarbonyl]-3-(3-methylbenzyl)-6-hydroxy-1H-indazole]
1000 to 10000 nM	Cc1cccc(Cc2n[nH]c3cc(O)c(C(=O)N(C)C4CCCCC4)cc23)c1 [Compound A195, 5-(N-Cyclohexyl-N-methylaminocarbonyl)-3-(3-methylbenzyl)-6-hydroxy-1H-indazole]
10 to 1000 nM	Cc1ccc(N(C)C(=O)c2cc3c(CC4CCCC4)n[nH]c3cc2O)cc1 [Compound A256, 5-[N-(4-Methylphenyl)-N-methylaminocarbonyl]-3-cyclopentylmethyl-6-hydroxy-1H-indazole]
10 to 1000 nM	COc1cccc(N(C)C(=O)c2cc3c(CC4CCCC4)n[nH]c3cc2O)c1 [Compound A257, 5-[N-(3-Methoxyphenyl)-N-methylaminocarbonyl]-3-cyclopentylmethyl-6-hydroxy-1H-indazole]
10 to 1000 nM	CN(C(=O)c1cc2c(CC3CCCC3)n[nH]c2cc1O)c1ccc2c(c1)OCO2 [Compound A260, 5-[N-(Benzo-1,3-dioxol-5-yl)-N-methylaminocarbonyl]-3-cyclopentylmethyl-6-hydroxy-1H-indazole]
